Test results as given in patent publication US12527739B2 (Alcon Inc., priority 2022, dated 2026).
Read-outs that look alike come from different tables or passages of the source.

How the values were obtained:
[1] = system: myopia progression; details: higher doses; cited from earlier work
[2] = target: T1, M4 muscarinic receptor (Homo sapiens, UniProt P08173); experiment: Muscarinic receptor radioligand displacement binding, M4
T1 sequence (P08173 1-479): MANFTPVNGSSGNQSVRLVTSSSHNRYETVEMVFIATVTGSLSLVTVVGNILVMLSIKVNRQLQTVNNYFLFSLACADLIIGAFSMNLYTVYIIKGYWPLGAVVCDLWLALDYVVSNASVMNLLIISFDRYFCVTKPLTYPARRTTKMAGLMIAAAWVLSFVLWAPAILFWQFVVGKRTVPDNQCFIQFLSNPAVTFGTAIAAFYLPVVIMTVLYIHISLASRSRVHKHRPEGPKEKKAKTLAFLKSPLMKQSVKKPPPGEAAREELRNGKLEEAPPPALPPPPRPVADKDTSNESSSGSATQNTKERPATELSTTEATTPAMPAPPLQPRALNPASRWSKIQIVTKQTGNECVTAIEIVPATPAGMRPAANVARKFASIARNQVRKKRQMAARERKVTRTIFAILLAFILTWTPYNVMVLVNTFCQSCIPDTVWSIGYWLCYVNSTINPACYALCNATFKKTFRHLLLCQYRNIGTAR

[3] = target: M3 muscarinic receptor (Homo sapiens, UniProt P20309); experiment: Muscarinic receptor radioligand displacement binding, M3
M3 muscarinic receptor, sequence (P20309 whole entry): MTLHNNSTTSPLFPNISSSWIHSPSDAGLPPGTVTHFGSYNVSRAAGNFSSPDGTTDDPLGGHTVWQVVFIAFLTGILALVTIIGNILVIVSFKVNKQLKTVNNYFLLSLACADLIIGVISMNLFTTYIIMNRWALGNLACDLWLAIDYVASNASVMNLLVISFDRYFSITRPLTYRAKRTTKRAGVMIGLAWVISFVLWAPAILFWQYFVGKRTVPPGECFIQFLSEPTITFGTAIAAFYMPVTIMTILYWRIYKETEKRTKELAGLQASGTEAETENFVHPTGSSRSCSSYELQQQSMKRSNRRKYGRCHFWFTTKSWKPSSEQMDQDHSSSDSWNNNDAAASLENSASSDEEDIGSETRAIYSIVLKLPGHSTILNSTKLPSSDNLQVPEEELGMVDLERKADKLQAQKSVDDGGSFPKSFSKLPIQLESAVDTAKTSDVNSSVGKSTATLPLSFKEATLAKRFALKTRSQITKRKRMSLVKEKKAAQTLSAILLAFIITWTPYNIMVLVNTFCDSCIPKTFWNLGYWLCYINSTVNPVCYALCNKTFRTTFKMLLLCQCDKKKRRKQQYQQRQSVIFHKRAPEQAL

[4] = system: muscarinic receptors; experiment: Binding selectivity across the muscarinic receptors; details: M1-M5
[5] = system: form deprivation-induced myopia (FDM); experiment: Form deprivation-induced myopia (FDM) chick model; assay type: in vivo; details: FIG. 1 Panel A; for efficacy in FDM chick model: intravitreal injection day 2 and day 4, readout day 5; for change in refractive error (goggled eye value minus ungoggled eye value): with respect to 5% v/v ethanol solution
[6] = pH adjustment of methyl atropine and benzyl atropine solutions, HPLC analysis; assay type: physicochemical; details: for Actual concentration (HPLC): after pH adjustment; for Initial pH: before pH adjustment
[7] = target: T2, M5 muscarinic receptor (Homo sapiens, UniProt P08912); experiment: Muscarinic receptor radioligand displacement binding, M5
T2 sequence (P08912 1-532): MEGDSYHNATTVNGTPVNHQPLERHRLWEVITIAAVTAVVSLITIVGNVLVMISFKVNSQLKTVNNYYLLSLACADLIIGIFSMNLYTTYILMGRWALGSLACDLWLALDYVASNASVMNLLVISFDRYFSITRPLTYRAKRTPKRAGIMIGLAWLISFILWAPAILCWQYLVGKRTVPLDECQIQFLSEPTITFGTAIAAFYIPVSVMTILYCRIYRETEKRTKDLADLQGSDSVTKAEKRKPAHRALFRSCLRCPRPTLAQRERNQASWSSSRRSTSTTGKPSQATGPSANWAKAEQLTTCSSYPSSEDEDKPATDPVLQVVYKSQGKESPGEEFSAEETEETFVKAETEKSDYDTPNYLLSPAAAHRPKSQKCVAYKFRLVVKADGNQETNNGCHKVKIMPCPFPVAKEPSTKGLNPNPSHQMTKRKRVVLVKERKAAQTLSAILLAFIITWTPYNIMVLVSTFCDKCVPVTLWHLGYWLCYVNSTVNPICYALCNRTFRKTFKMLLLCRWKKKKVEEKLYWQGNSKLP

[8] = Solubility screen in two simple vehicles, pH 7.4; details: for pH of the formulation: pH 7.4
[9] = 5 min, pH 7.4
[10] = target: T3, M2 muscarinic receptor (Homo sapiens, UniProt P08172); experiment: Muscarinic receptor radioligand displacement binding, M2
T3 sequence (P08172 1-466): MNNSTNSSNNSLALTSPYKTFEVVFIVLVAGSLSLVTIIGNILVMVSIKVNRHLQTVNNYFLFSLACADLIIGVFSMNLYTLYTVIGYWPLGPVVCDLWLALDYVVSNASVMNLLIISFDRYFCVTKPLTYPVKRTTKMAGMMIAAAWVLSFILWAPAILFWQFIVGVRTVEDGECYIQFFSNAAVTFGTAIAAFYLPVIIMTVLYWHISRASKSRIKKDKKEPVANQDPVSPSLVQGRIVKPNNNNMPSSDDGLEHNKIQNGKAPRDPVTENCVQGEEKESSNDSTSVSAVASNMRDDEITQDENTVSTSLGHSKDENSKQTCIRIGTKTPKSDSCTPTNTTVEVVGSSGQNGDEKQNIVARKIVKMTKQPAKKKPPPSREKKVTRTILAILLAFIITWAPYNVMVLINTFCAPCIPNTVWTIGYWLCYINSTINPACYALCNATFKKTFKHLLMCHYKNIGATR

[11] = Methyl atropine in lowered-pH phosphate vehicles with tonicity agents; assay type: physicochemical
Description: Therefore, lowering the initial pH value of the vehicles was deemed necessary to: i) ensure higher solubility; and ii) reach an ophthalmically-acceptable target pH (5-8). Also, the addition of tonicity agents was needed to reach the acceptable target range of 280-320 mOsm/kg (Table 4 and Table 5).

[12] = target: T4, M1 muscarinic receptor (Homo sapiens, UniProt P11229); experiment: Muscarinic receptor radioligand displacement binding, M1
T4 sequence (P11229 1-460): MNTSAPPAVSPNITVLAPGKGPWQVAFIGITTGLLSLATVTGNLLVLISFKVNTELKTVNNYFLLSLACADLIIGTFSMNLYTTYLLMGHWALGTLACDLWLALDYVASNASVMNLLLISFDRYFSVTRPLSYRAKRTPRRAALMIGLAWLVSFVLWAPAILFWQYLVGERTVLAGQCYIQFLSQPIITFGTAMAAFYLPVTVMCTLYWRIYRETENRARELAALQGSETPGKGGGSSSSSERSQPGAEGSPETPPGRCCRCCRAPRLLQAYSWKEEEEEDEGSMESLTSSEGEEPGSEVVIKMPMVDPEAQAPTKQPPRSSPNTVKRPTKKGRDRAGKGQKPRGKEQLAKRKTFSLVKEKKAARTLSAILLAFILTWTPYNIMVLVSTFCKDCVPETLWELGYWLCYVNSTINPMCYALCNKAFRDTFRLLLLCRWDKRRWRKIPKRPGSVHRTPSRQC

[13] = 0.5% Sodium Chloride in 20 mM Phosphate Buffer, pH 2.71
[14] = 3% Mannitol in 20 mM Phosphate Buffer, pH 4.8
[15] = 3.7% Mannitol in 20 mM Phosphate Buffer, pH 2.82
[16] = […] Sodium Choride in 20 mM Phosphate Buffer, pH 4.8

SMILES: CN1[C@@H]2CC[C@H]1C[C@@H](OC(=O)C(CO)c1ccccc1)C2 (mixture of isomers) [Atropine, atropine]
- side effects [1]: pupillary dilation and light sensitivity

SMILES: C[N+]1(C)[C@@H]2CC[C@H]1C[C@@H](OC(=O)C(CO)c1ccccc1)C2 (stereo partly shown) [Methyl Atropine, methyl atropine]
- Ki [2]: 1.2 nM
- Ki [3]: 2.4 nM
- selectivity of binding to the muscarinic receptors [4]: non-selective binding
- efficacy in FDM chick model [5]: effective
- change in refractive error (goggled eye value minus ungoggled eye value) [5]: significantly decreased
- Actual concentration (HPLC) ([6]; 30 mM Phosphate Buffer, pH 7.4): 4.61 mg/g
- Initial pH ([6]; 30 mM Phosphate Buffer, pH 7.4): 8.1
- Actual concentration (HPLC) ([6]; Phosphate Buffered Saline): 4.89 mg/g
- Initial pH ([6]; Phosphate Buffered Saline): 9.3
- Ki [7]: 2.2 nM
- pH of the formulation ([8]; 30 mM Phosphate Buffer): 9.2
- pH of the formulation ([8]; Phosphate Buffered Saline): 9.6
- dissolution in vehicle (in words) ([8]; both vehicles: 30 mM phosphate buffer pH 7.4 and phosphate-buffered saline pH 7.4): did not entirely dissolve
- Actual Concentration [9]: 1.63 mg/g
- Ki [10]: 7.8 nM
- Actual Concentration [11, 13]: 5.38 mg/g
- Final pH [11, 13]: 6.7
- Osmolality [11, 13]: 202.5 mOsm/kg
- Actual Concentration [11, 14]: 5.62 mg/g
- Final pH [11, 14]: 8.8
- Osmolality [11, 14]: 217 mOsm/kg
- Actual Concentration [11, 15]: 5.14 mg/g
- Final pH [11, 15]: 6.8
- Osmolality [11, 15]: 262.5 mOsm/kg
- Actual Concentration [11, 16]: 5.14 mg/g
- Final pH [11, 16]: 8.0
- Osmolality [11, 16]: 182.5 mOsm/kg
- Ki [12]: 3.4 nM

SMILES: CN1C2CCC1CC(OC(=O)C(F)(CO)c1ccccc1)C2 (stereo not shown) [fluoro-atropine]
- efficacy in FDM chick model [5]: effective
- change in refractive error (goggled eye value minus ungoggled eye value) [5]: significantly decreased
